# Tests used:
# [1] = Pharmacokinetics in renal impairment; assay type: in vivo, human; details: moderate or severe renal impairment
# Source text: No dose adjustment is necessary in patients with renal impairment. […] The effect of dialysis on the PK of ponesimod has not been studied. Due to the high plasma protein binding (greater than 99%) of ponesimod, dialysis is not expected to alter the total and unbound ponesimod concentration, and no dose adjustments are anticipated based on these considerations.
# [2] = Animal studies of blood-brain-barrier passage; assay type: in vivo
# Source text: Ponesimod is highly bound to plasma proteins (>99%) and is mainly (78.5%) distributed in the plasma fraction of whole blood.
# mice, rats, and dogs = details: in vivo
# Source text: At the higher doses tested in short-term studies, alveolar histiocytosis was associated with lung edema, emphysema, or hyalinosis, and with bronchioloalveolar hyperplasia after cessation of dosing in rats and alveolar histiocytosis and hyalinosis in dogs. Effects tended to be absent or less severe after chronic treatment. These findings are considered secondary to increased vascular permeability caused by S1P1 receptor modulation.
# [3] = Pharmacokinetics in hepatic impairment (Child-Pugh class A, B, C); assay type: in vivo, human
# Solubility in water = assay type: physicochemical
# mice = experiment: Carcinogenesis, mice, oral up to 2 years; assay type: in vivo, mouse
# Description: Plasma exposure (AUC) at to lowest dose tested in males (50 mg/kg/day) was approximately 5 times that in humans at the recommended human dose (RHD) of 20 mg.
# [4] = test system: P-gp, BCRP, OATP1B1, or OATP1B3 transporters; experiment: Transporter substrate assessment; assay type: in vitro ADME
# Source text: Drugs that are inhibitors of these transporters are unlikely to impact the PK of ponesimod.
# female rats = experiment: Pre- and postnatal development study in female rats, oral; assay type: in vivo, rat
# Source text: There are no data on the presence of PONVORY in human milk, the effects on the breastfed infant, or the effects of the drug on milk production.
# pregnant rats = experiment: Embryofetal development study in pregnant rats, oral; assay type: in vivo
# Source text: Maternal toxicity was not observed, indicating a selective effect on the fetus.
# male and female rats = experiment: Fertility studies in male and female rats, oral; assay type: in vivo, rat
# Description: Plasma ponesimod exposures (AUC) at the highest dose tested were approximately 10 (males) and 30 (females) times that in humans at the recommended human dose (RHD) of 20 mg/day.
# clinical = details: human, in vivo
# Description: Steady-state levels are approximately 2.0 to 2.6-fold greater than with a single dose, and are achieved following 3 days of administration of the maintenance dose of ponesimod.
# The pharmacokinetics of ponesimod are similar in healthy subjects and patients with multiple sclerosis, with 25% inter-subject variability across studies.
# The time to reach maximum plasma concentration of ponesimod is 2-4 hours post-dose.
# Following IV administration in healthy subjects, the steady-state volume of distribution of ponesimod is 160 L.
# mammalian cells = experiment: Chromosomal aberration in mammalian cells; assay type: cell-based; details: in vitro
# Source text: Ponesimod was negative in a battery of in vitro (Ames, chromosomal aberration in mammalian cells) and in vivo (micronucleus in rat) assays.
# dogs = experiment: Oral toxicity studies of 13 to 52 weeks in dogs, coronary arterial lesions; assay type: in vivo, dog; details: dogs
# Description: (§1) At the NOAEL (2 mg/kg/day) for these findings, plasma exposures (AUC) were approximately 2 times that expected in humans at the RHD.
# [5] = as above; assay type: in vivo, dog; details: dog, in vivo; 13 to 52 weeks oral
# Description: as §1
# [6] = test system: peripheral lymphocyte count; assay type: in vivo, human
# Source text: PONVORY causes a dose-dependent reduction in peripheral lymphocyte count to 30-40% of baseline values because of reversible sequestration of lymphocytes in lymphoid tissues [see Clinical Pharmacology (12.2)]. PONVORY may therefore increase the susceptibility to infections. Life-threatening and rare fatal infections have been reported in association with other sphingosine 1-phosphate (SIP) receptor modulators.
# Initiation of treatment with PONVORY should be delayed in patients with active infection until resolution. Lymphocyte counts returned to the normal range in 90% of patients within 1 week of stopping therapy in modeling studies [see Clinical Pharmacology (12.2)]. In Study 1, peripheral lymphocyte counts returned to normal range within 2 weeks after discontinuation of PONVORY, which was the first timepoint evaluated. Because residual pharmacodynamic effects, such as lowering effects on peripheral lymphocyte count, may persist for 1 to 2 weeks after discontinuation of PONVORY, vigilance for infection should be continued for 1 to 2 weeks after PONVORY is discontinued [see Warnings and Precautions (5.12)].
# In Study 1, the proportion of patients who experienced lymphocyte counts less than 0.2×10^9/L was 3.2%. Effective diagnostic and therapeutic strategies should be employed in patients with symptoms of infection while on therapy. Consider interruption of treatment with PONVORY if a patient develops a serious infection.
# [7] = Excretion after single oral administration of 14C-ponesimod; assay type: in vivo, human; details: single oral 14C-ponesimod
# Source text: Following a single oral administration of ^14C-ponesimod, 57% to 80% of the dose was recovered in feces (16% as unchanged ponesimod), and 10% to 18% in urine (no unchanged ponesimod).
# rats = experiment: Carcinogenesis, rats, oral up to 2 years; assay type: in vivo, rat
# Description: Plasma exposure at the highest dose tested in males (30 mg/kg/day) was approximately 4 times that in humans at the recommended human dose (RHD) of 20 mg.
compound,measurement,setting,value
"CCC/N=C1\S/C(=C\c2ccc(OC[C@H](O)CO)c(Cl)c2)C(=O)N1c1ccccc1C [Ponesimod, (R)-5-[3-chloro-4-(2,3-dihydroxy-propoxy)-benz[Z]ylidene]-2-([Z]-propylimino)-3-o-tolyl-thiazolidin-4-one]",Change in Cmax and AUC vs normal renal function,[1],no significant changes
same,Blood-brain-barrier passage,[2],readily crosses the blood-brain-barrier
same,Lung findings in oral toxicity studies,"mice, rats, and dogs",Increases in lung weight and histopathology
same,Increase of AUC0-∞ vs healthy subjects,[3]; mild hepatic impairment (Child-Pugh A),1.3 fold
same,Change in Cmax vs healthy subjects,"[3]; mild, moderate, or severe hepatic impairment",no change
same,Increase of AUC0-∞ vs healthy subjects,[3]; moderate hepatic impairment (Child-Pugh B),2.0 fold
same,Increase of AUC0-∞ vs healthy subjects,[3]; severe hepatic impairment (Child-Pugh C),3.1 fold
same,Solubility in water,Solubility in water,practically insoluble or insoluble in water
same,Carcinogenicity findings in mice,"mice; males all doses (50, 150, 400 mg/kg/day), females highest dose (300 mg/kg/day)",incidences in hemangiosarcoma and combined hemangioma and hemangiosarcoma
same,Plasma exposure (AUC) at lowest dose in male mice (50 mg/kg/day) relative to humans at RHD,"mice; mouse, in vivo",approximately 5 times
same,"Substrate of P-gp, BCRP, OATP1B1, or OATP1B3 transporters",[4],not a substrate
same,No-effect dose for adverse effects on pre- and postnatal development in rats,"female rats; 5, 10, or 20 mg/kg oral",not identified
same,Plasma exposure (AUC) in dams at lowest dose tested vs humans at RHD,"female rats; rat, in vivo",less than that in humans
same,Presence in offspring after dosing of female rats during pregnancy and lactation,female rats; suggesting excretion in milk,detected in the plasma of the offspring
same,Embryofetal findings in rats,"pregnant rats; 0, 1, 10, or 40 mg/kg/day oral during organogenesis, at all but the lowest dose",increased incidences of fetal malformations
same,No-effect dose for adverse effects on embryofetal development in rats,"pregnant rats; rat, in vivo",1 mg/kg/day
same,Plasma exposure (AUC) at no-effect dose vs humans at RHD 20 mg/day,pregnant rats; rats,lower than that in humans
same,Effects on fertility in rats,"male and female rats; 0, 10, 30, or 100 mg/kg/day oral",no effects on fertility
same,"Plasma exposure (AUC) at highest dose relative to humans at RHD, females",male and female rats; 100 mg/kg/day,~30 times
same,"Plasma exposure (AUC) at highest dose relative to humans at RHD, males",male and female rats; 100 mg/kg/day,approximately 10 times
same,Effect of food on pharmacokinetics,clinical,does not have a clinically relevant effect
same,Influence of age (range: 17 to 65 years) on PK,clinical,not identified to significantly influence
same,Influence of gender on pharmacokinetics,clinical,no clinically significant influence
same,Inter-subject variability of pharmacokinetics across studies,clinical,25%
same,Pharmacokinetic differences between Japanese and Caucasian subjects,clinical,No clinically relevant pharmacokinetic differences
same,Time to steady state on maintenance dose,clinical,3 days
same,clearance,clinical; iv,63.3 mL/min
same,Increase of Cmax and AUC with dose,clinical; po,approximately dose-proportionally
same,Steady-state levels relative to a single dose,clinical; po,2.0-2.6 fold
same,Time to reach maximum plasma concentration,clinical; po,2 to 4 h
same,half-life,clinical; po,~33 h
same,bioavailability,"clinical; po, 10 mg",84%
same,Chromosomal aberration in mammalian cells result,mammalian cells,negative
same,Plasma exposures (AUC) at NOAEL relative to humans at RHD,dogs,approximately 2 times
same,NOAEL,[5],2 mg/kg/day
same,Time for peripheral lymphocyte counts to return to normal range after discontinuation,"[6]; Study 1, first timepoint evaluated",≤ 2 weeks
same,Peripheral lymphocyte count reduced to % of baseline values,[6]; dose-dependent,30-40 % of baseline
same,Proportion of patients with lymphocyte counts less than 0.2×10^9/L,"[6]; human, in vivo",3.2%
same,Dose recovered in feces as unchanged ponesimod,[7],16%
same,Plasma exposure at highest dose in male rats (30 mg/kg/day) relative to humans at RHD,"rats; rat, in vivo",approximately 4 times
same,Carcinogenicity findings in rats,rats; up to 30 (males) / 100 (females) mg/kg/day,did not result in an increase in tumors
